From patent publication US20240173374A1, “LIPOSOMAL FORMULATIONS OF BORONIC ACID CONTAINING ACTIVE AGENTS” (Ohio State Innovation Foundation, priority 2021, published 2024)

What was measured:
[1] = BTZ / boronic acid drug loading into liposomes (UV absorption or HPLC); format: physicochemical; settings: tiron-based liposomes, same drug loading protocol
Procedure: Remote loading of BTZ into liposomes encapsulating calcium ascorbate/calcium acetate. Lipids (DSPC/Chol/mPEG-DSPE 60:35:5 mole/mole) were dissolved in chloroform, dried into a thin film on a round-bottom flask and hydrated in 100 mM calcium ascorbate/50 mM calcium acetate (pH 8). The resulting liposomes were subjected to 5 cycles of freezing and thawing and extrusion through a 100-nm pore size polycarbonate membrane in a Lipex extruder at 65 degree. […] External buffer of the liposomes was exchanged to 130 mM NaCl/10 mM histidine (pH 6) by passing through a Sepharose CL-4B column. […] BTZ was dissolved in a small volume of DMSO and added to the liposomes and incubated under stirring at 20-60 degrees for 10-60 min (e.g., 30 min at 50 degree) to facilitate remote loading. BTZ diffuses into the liposomes and forms a complex with ascorbic acid (BTZ-ASC complex), which is negatively charged and partially precipitates intraliposome with calcium, resulting in stable encapsulation of the BTZ. Finally, unencapsulated BTZ was removed from the liposomes by passing through a Sepharose CL-4B column. BTZ concentration in the L-BTZ was determined by UV absorption or by HPLC. […]
Remote loading of BTZ into liposomes containing ascorbyl palmitate (ASC-C16) and encapsulating calcium acetate. […] BTZ concentration in the L-BTZ was determined by UV absorption or by HPLC. […]

[2] = Plasma pharmacokinetics of L-BTZ and Velcade in rats after single dose; format: in vivo; settings: 0.6 mg/kg, 5 ul/g, plasma BTZ by LC-MS
Procedure: Plasma concentrations were determined by LC-MS. Compared to Velcade, the circulation time L-BTZ was much longer, which subsequently enhances the therapeutic effect and half-life time in vivo.

[3] = system: NCI-H929 multiple myeloma; assay: Antitumor activity in NCI-H929 multiple myeloma subcutaneous murine xenograft model; format: in vivo, mice; settings: FIG. 3B
Excerpt: (3A) anti-tumor effect, (3B) body weight loss, and (3C) survival curves result in vivo.

[4] = clinical trial for SLE; cited from earlier work
[5] = AML trial; cited from earlier work
AML murine model = settings: cited from earlier work

| Structure (SMILES) | drug loading [1] | CLss_F ([2]; i.v.) [mL/min/kg] | Vz_F ([2]; i.v.) [L/kg] | AUC(0-inf) ([2]; rat, iv) [ng·h/mL] | AUC(0-t) ([2]; rat, iv) [ng·h/mL] | Cmax ([2]; rat, iv) [ng/mL] | Tmax ([2]; rat, iv) [h] | half-life ([2]; rat, iv) [h] | body weight loss during treatment [3] | dropped out due to side effects [4] | drop out due to neurotoxicity [5] | reaching effective dose (limited by toxicity) (AML murine model) |
| --- | --- | --- | --- | --- | --- | --- | --- | --- | --- | --- | --- | --- |
| CC(C)C[C@H](NC(=O)[C@@H](NC(=O)c1cccc(-c2ccccc2)n1)[C@@H](C)O)B(O)O [delanzomib] | High drug loading |  |  |  |  |  |  |  |  |  |  |  |
| CC(C)C[C@H](NC(=O)[C@H](Cc1ccccc1)NC(=O)c1cnccn1)B(O)O [free BTZ, Bortezomib] |  | 18.9 | 54.22 | 864 | 322 | 45.4 | 0.25 | 33.1 | no significant body weight loss | 7/12 | 4/7 | cannot reach effective dose |
| CC(C)C[C@H](NC(=O)CNC(=O)c1cc(Cl)ccc1Cl)B(O)O [ixazomib] | High drug loading |  |  |  |  |  |  |  |  |  |  |  |
